From US12637478B2, “Compound, preparation method thereof, and antibiotic composition comprising same” (priority 2020, dated 2026)
≈ marks a conversion by molar mass, not a printed value. Like-named read-outs stand apart in the source and are kept apart here.

What was measured:
S. aureus^MS [1] = experiment: MIC by broth microdilution (aerobic pathogens), test strain 2; assay type: cell-based; details: Staphylococcus aureus
Description: (§1) The antibacterial activity of the compounds of Examples 1 to 48 of the present invention against aerobic pathogens were evaluated by measuring the minimum concentration of the antibiotic capable of inhibiting bacterial growth by 90% compared to the growth of the non-drug treated control group. MIC was measured by the broth microdilution method based on CLSI standards [Reference: Clinical and Laboratory Standards Institute Document. (2000) Methods for Dilution Antimicrobial Susceptibility Test for Bacteria that Grow Aerobically-Fifth Edition: M7-A5. CLSI, Villanova, PA].
(§2) All 13 strains such as methicillin susceptible Staphylococcus aureus (MSSA), methicillin resistant Staphylococcus aureus (MRSA), Vancomycin resistant Staphylococcus aureus (VRSA), Staphylococcus epidermidis, methicillin resistant Staphylococcus epidermidis, Enterococcus faecalis, Vancomycin resistant Enterococcus faecalis, Enterococcus faecium, Vancomycin resistant Enterococcus faecium were used.

S. aureus^MS [2] = experiment: MIC by broth microdilution (aerobic pathogens), test strain 1; assay type: cell-based; details: Staphylococcus aureus
Description: as §1, §2

E. faecalis^VanA = experiment: MIC by broth microdilution (aerobic pathogens), test strain 8; assay type: cell-based, Vancomycin resistant Enterococcus faecalis; details: Enterococcus faecalis; test strain 8, E. faecalis^VanA (vancomycin resistant); read-out: MIC
Description: as §1, §2

E. faecalis = experiment: MIC by broth microdilution (aerobic pathogens), test strain 7; assay type: cell-based; details: Enterococcus faecalis; test strain 7, E. faecalis; read-out: MIC
Description: as §1, §2

S. epidermis = experiment: MIC by broth microdilution (aerobic pathogens), test strain 5; assay type: cell-based; details: Staphylococcus epidermidis
Description: as §1, §2

S. epidermis^MR = experiment: MIC by broth microdilution (aerobic pathogens), test strain 6; assay type: cell-based, Methicillin resistant Staphylococcus epidermidis; details: Staphylococcus epidermidis; test strain 6, S. epidermis^MR (methicillin resistant); read-out: MIC
Description: as §1, §2

E. faecalis^LinR = experiment: MIC by broth microdilution (aerobic pathogens), test strain 9; assay type: cell-based, Linezolid resistant Enterococcus faecalis; details: Enterococcus faecalis
Description: as §1, §2

C. difficile 173 = experiment: MIC by agar dilution against Clostridioides difficile, test strain 17; assay type: cell-based; details: test strain 17, C. difficile 173, anaerobic, agar dilution, read-out: MIC
C. difficile 9689 = experiment: MIC by agar dilution against Clostridioides difficile, test strain 13; assay type: cell-based; details: test strain 13, C. difficile 9689, anaerobic, agar dilution, read-out: MIC
C. difficile 174 = experiment: MIC by agar dilution against Clostridioides difficile, test strain 18; assay type: cell-based; details: test strain 18, C. difficile 174, anaerobic, agar dilution, read-out: MIC
C. difficile 152 = experiment: MIC by agar dilution against Clostridioides difficile, test strain 14; assay type: cell-based; details: test strain 14, C. difficile 152, anaerobic, agar dilution, read-out: MIC
C. difficile 181 = experiment: MIC by agar dilution against Clostridioides difficile, test strain 19; assay type: cell-based; details: test strain 19, C. difficile 181, anaerobic, agar dilution, read-out: MIC
C. difficile 161 = experiment: MIC by agar dilution against Clostridioides difficile, test strain 16; assay type: cell-based; details: test strain 16, C. difficile 161, anaerobic, agar dilution, read-out: MIC
E. faecium = experiment: MIC by broth microdilution (aerobic pathogens), test strain 10; assay type: cell-based; details: Enterococcus faecium; test strain 10, E. faecium; read-out: MIC
Description: as §1, §2

C. difficile 159 = experiment: MIC by agar dilution against Clostridioides difficile, test strain 15; assay type: cell-based; details: 159
[3] = test strain 2, S. aureus^MS, read-out: MIC
[4] = test strain 1, S. aureus^MS, read-out: MIC
[5] = test strain 9, E. faecalis^LinR (linezolid resistant), read-out: MIC
[6] = test strain 5, S. epidermis, read-out: MIC

MIC (S. aureus^MS [1]; [3])	MIC (S. aureus^MS [2]; [4])	MIC (E. faecalis)	MIC (S. epidermis^MR)	MIC (E. faecalis^LinR; [5])	MIC (C. difficile 173)	MIC (C. difficile 9689)	MIC (C. difficile 174)	MIC (C. difficile 152)	SMILES	further results
					0.5 mg/L (≈ 0.403 µM)	0.5 mg/L (≈ 0.403 µM)	0.125 mg/L (≈ 0.101 µM)	1 mg/L (≈ 0.807 µM)	C/C=C1\NC(=O)[C@H]([C@@H](C)O)NC(=O)c2csc(n2)-c2ccc(-c3nc(-c4nc(C(=O)NC5(C(=O)NCCCn6cc([N+](=O)[O-])cn6)CC5)cs4)cs3)nc2-c2csc(n2)[C@H]([C@@H](C)O)NC(=O)c2csc(n2)[C@H](C(C)C)NC(=O)c2csc1n2 [Compound 13]	MIC (C. difficile 181): 0.5 mg/L (≈ 0.403 µM); MIC (C. difficile 161): 0.5 mg/L (≈ 0.403 µM)
1 mg/L (≈ 0.798 µM)	1 mg/L (≈ 0.798 µM)	1 mg/L (≈ 0.798 µM)	1 mg/L (≈ 0.798 µM)	0.5 mg/L (≈ 0.399 µM)					C/C=C1\NC(=O)[C@H]([C@@H](C)O)NC(=O)c2csc(n2)-c2ccc(-c3nc(-c4nc(C(=O)NC5(C(=O)NCCCN6CCN(C7CC7)CC6)CC5)cs4)cs3)nc2-c2csc(n2)[C@H]([C@@H](C)O)NC(=O)c2csc(n2)[C@H](C(C)C)NC(=O)c2csc1n2 [Compound 15]	MIC (E. faecium): 1 mg/L (≈ 0.798 µM); MIC (S. epidermis; [6]): 1 mg/L (≈ 0.798 µM)
									C/C=C1\NC(=O)[C@H]([C@@H](C)O)NC(=O)c2csc(n2)-c2ccc(-c3nc(-c4nc(C(=O)NC5(C(=O)NCCCN6C(=O)CN(CCC(=O)OC)C6=O)CC5)cs4)cs3)nc2-c2csc(n2)[C@H]([C@@H](C)O)NC(=O)c2csc(n2)[C@H](C(C)C)NC(=O)c2csc1n2 [Compound 16]	MIC (S. aureus^MS [1]): 0.5 mg/L (≈ 0.381 µM); MIC (S. aureus^MS [2]): 1 mg/L (≈ 0.762 µM); MIC (C. difficile 159): 0.5 mg/L (≈ 0.381 µM); MIC (E. faecalis^LinR): 0.25 mg/L (≈ 0.19 µM)
1 mg/L (≈ 0.834 µM)	1 mg/L (≈ 0.834 µM)								C/C=C1\NC(=O)[C@H]([C@@H](C)O)NC(=O)c2csc(n2)-c2ccc(-c3nc(-c4nc(C(=O)NC5(C(=O)NCCCNC6COC6)CC5)cs4)cs3)nc2-c2csc(n2)[C@H]([C@@H](C)O)NC(=O)c2csc(n2)[C@H](C(C)C)NC(=O)c2csc1n2 [Compound 17]	
									C/C=C1\NC(=O)[C@H]([C@@H](C)O)NC(=O)c2csc(n2)-c2ccc(-c3nc(-c4nc(C(=O)NC5(C(=O)NCCCN6C(=O)CN(CCC(=O)O)C6=O)CC5)cs4)cs3)nc2-c2csc(n2)[C@H]([C@@H](C)O)NC(=O)c2csc(n2)[C@H](C(C)C)NC(=O)c2csc1n2 [Compound 19]	MIC (S. aureus^MS [2]): 0.5 mg/L (≈ 0.385 µM)
0.125 mg/L (≈ 0.104 µM)	0.25 mg/L (≈ 0.208 µM)			0.5 mg/L (≈ 0.417 µM)	0.5 mg/L (≈ 0.417 µM)	0.25 mg/L (≈ 0.208 µM)	0.25 mg/L (≈ 0.208 µM)	0.25 mg/L (≈ 0.208 µM)	C/C=C1\NC(=O)[C@H]([C@@H](C)O)NC(=O)c2csc(n2)-c2ccc(-c3nc(-c4nc(C(=O)NC5(C(=O)NCCCCCB(O)O)CC5)cs4)cs3)nc2-c2csc(n2)[C@H]([C@@H](C)O)NC(=O)c2csc(n2)[C@H](C(C)C)NC(=O)c2csc1n2 [Compound 21]	MIC (C. difficile 181): 1 mg/L (≈ 0.833 µM)
0.125 mg/L (≈ 0.0974 µM)	0.25 mg/L (≈ 0.195 µM)			0.5 mg/L (≈ 0.39 µM)	0.5 mg/L (≈ 0.39 µM)	0.125 mg/L (≈ 0.0974 µM)	0.125 mg/L (≈ 0.0974 µM)	0.125 mg/L (≈ 0.0974 µM)	C/C=C1\NC(=O)[C@H]([C@@H](C)O)NC(=O)c2csc(n2)-c2ccc(-c3nc(-c4nc(C(=O)NC5(C(=O)NCCCn6c(=O)[nH]cc([N+](=O)[O-])c6=O)CC5)cs4)cs3)nc2-c2csc(n2)[C@H]([C@@H](C)O)NC(=O)c2csc(n2)[C@H](C(C)C)NC(=O)c2csc1n2 [Compound 22]	
1 mg/L (≈ 0.778 µM)	0.5 mg/L (≈ 0.389 µM)	1 mg/L (≈ 0.778 µM)	1 mg/L (≈ 0.778 µM)	1 mg/L (≈ 0.778 µM)					C/C=C1\NC(=O)[C@H]([C@@H](C)O)NC(=O)c2csc(n2)-c2ccc(-c3nc(-c4nc(C(=O)NC5(C(=O)NCCN6CCN(CCC(=O)OC)CC6)CC5)cs4)cs3)nc2-c2csc(n2)[C@H]([C@@H](C)O)NC(=O)c2csc(n2)[C@H](C(C)C)NC(=O)c2csc1n2 [Compound 24]	MIC (S. epidermis; [6]): 0.25 mg/L (≈ 0.195 µM)

SMILES	MIC (S. aureus^MS [1]; [3])	MIC (S. aureus^MS [2]; [4])	MIC (E. faecalis)	MIC (S. epidermis^MR)	MIC (E. faecalis^LinR; [5])	MIC (C. difficile 173)	MIC (C. difficile 9689)	MIC (C. difficile 174)	MIC (C. difficile 152)	further results
C/C=C1\NC(=O)[C@H]([C@@H](C)O)NC(=O)c2csc(n2)-c2ccc(-c3nc(-c4nc(C(=O)NC5(C(=O)NCCN6CCOCC6)CC5)cs4)cs3)nc2-c2csc(n2)[C@H]([C@@H](C)O)NC(=O)c2csc(n2)[C@H](C(C)C)NC(=O)c2csc1n2 [Compound 2]	1 mg/L (≈ 0.834 µM)	1 mg/L (≈ 0.834 µM)	0.5 mg/L (≈ 0.417 µM)	0.5 mg/L (≈ 0.417 µM)	1 mg/L (≈ 0.834 µM)					MIC (E. faecalis^VanA): 0.5 mg/L (≈ 0.417 µM); MIC (S. epidermis): 0.25 mg/L (≈ 0.208 µM)
